The source made the active and inactive calls.
Experiments:
[1] = molecular target: Protein-tyrosine kinase 2-beta (Homo sapiens, UniProt Q14289);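 note: potency of inhibitors of PYK2 kinase phosphorylation of poly-GT substrate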
[2] = molecular target: T1, Polyadenylate-binding protein 1 (Homo sapiens, UniProt P11940); assay: MLLE binding blockers, Cy5 peptide tracer – biochemical, fluorescence polarization, Cy5-PAM2 peptide, secondary, miRNA deadenylation inhibitor project, dose response (AID 602260); type: functional; conditions: read-out: IC50_Mean
[3] = molecular target: T1, Polyadenylate-binding protein 1; assay: MLLE domain peptide-binding blockers, IC50 – biochemical, fluorescence polarization, FITC-PAM2 peptide, dose response (AID 602259); type: functional; conditions: read-out: IC50_Mean
Major prion protein = Major prion protein (Homo sapiens, UniProt P04156); type: functional, cell-based
[4] = NIH-3T3 fibroblast cytotoxicity, dose response, cytotoxicity control, cell-based, fluorescence, Alamar Blue, secondary assay (AID 2327); type: functional;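 note: NIH-3T3 mouse fibroblasts cultured with fluconazole at 8 µg/mL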
[5] = molecular target: T2, RNA-binding protein pos-1 (Caenorhabditis elegans, UniProt G5EF15); assay: disruptors of C. elegans POS-1 RNA interaction – biochemical, fluorescence polarization, dose response (AID 1964);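 note: purified POS-1 fused to maltose binding protein made in E. coli; potency of compounds blocking POS-1 binding to fluorescent RNA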
T2 sequence (G5EF15 whole entry): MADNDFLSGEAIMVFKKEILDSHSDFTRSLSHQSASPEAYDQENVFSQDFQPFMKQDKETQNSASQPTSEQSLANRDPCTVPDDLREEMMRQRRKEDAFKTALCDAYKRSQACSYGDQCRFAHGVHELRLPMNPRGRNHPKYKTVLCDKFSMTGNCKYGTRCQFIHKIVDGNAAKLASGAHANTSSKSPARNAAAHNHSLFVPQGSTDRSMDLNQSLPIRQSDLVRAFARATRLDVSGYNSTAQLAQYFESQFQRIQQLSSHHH

[6] = molecular target: T3, Zinc finger protein mex-5 (Caenorhabditis elegans, UniProt Q9XUB2); assay: potency of MEX-5 RNA-binding blockers – biochemical, C. elegans, fluorescence polarization, dose response (AID 1960)
T3 sequence (Q9XUB2 whole entry): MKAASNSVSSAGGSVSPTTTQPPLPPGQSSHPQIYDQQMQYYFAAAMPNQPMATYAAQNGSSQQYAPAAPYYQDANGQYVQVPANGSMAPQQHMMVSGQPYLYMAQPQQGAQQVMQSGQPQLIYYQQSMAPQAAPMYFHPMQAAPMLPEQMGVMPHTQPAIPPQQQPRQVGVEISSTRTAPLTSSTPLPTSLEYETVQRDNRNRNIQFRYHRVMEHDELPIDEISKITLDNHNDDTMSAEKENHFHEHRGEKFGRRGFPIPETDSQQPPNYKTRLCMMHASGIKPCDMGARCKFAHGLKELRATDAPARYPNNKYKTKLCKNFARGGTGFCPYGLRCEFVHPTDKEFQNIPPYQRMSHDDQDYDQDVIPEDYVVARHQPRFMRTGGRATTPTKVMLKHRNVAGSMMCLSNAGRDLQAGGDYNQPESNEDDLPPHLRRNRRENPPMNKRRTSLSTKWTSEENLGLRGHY

[7] = fluconazole-exposed Candida albicans growth modulators – fluorescence, retest, confirmation (AID 2467); type: functional, cell-based
Large T antigen = Large T antigen (Simian virus 40, UniProt P03070); type: functional, Betapolyomavirus macacae;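 note: Confirmatory-stage PubChem screen for compounds that inhibit SV40 T antigen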
Caspase-6 = molecular target: T4, Caspase-6 (Homo sapiens, UniProt P55212); assay: inhibition of CASP6 peptide cleavage – biochemical, VEID-R110 fluorescence, cherry-pick, dose response (AID 720632)
T4 sequence (P55212 whole entry): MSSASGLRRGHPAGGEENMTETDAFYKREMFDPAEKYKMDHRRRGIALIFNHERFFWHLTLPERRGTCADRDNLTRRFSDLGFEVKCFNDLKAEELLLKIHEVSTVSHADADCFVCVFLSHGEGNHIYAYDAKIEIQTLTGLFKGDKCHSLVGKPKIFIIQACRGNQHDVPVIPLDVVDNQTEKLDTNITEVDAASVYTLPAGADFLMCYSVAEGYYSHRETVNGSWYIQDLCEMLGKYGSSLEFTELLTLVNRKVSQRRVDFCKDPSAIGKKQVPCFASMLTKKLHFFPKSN

[8] = molecular target: T5, Histone-lysine N-methyltransferase NSD2 (Homo sapiens, UniProt O96028); type: biochemical
T5 sequence (O96028 whole entry): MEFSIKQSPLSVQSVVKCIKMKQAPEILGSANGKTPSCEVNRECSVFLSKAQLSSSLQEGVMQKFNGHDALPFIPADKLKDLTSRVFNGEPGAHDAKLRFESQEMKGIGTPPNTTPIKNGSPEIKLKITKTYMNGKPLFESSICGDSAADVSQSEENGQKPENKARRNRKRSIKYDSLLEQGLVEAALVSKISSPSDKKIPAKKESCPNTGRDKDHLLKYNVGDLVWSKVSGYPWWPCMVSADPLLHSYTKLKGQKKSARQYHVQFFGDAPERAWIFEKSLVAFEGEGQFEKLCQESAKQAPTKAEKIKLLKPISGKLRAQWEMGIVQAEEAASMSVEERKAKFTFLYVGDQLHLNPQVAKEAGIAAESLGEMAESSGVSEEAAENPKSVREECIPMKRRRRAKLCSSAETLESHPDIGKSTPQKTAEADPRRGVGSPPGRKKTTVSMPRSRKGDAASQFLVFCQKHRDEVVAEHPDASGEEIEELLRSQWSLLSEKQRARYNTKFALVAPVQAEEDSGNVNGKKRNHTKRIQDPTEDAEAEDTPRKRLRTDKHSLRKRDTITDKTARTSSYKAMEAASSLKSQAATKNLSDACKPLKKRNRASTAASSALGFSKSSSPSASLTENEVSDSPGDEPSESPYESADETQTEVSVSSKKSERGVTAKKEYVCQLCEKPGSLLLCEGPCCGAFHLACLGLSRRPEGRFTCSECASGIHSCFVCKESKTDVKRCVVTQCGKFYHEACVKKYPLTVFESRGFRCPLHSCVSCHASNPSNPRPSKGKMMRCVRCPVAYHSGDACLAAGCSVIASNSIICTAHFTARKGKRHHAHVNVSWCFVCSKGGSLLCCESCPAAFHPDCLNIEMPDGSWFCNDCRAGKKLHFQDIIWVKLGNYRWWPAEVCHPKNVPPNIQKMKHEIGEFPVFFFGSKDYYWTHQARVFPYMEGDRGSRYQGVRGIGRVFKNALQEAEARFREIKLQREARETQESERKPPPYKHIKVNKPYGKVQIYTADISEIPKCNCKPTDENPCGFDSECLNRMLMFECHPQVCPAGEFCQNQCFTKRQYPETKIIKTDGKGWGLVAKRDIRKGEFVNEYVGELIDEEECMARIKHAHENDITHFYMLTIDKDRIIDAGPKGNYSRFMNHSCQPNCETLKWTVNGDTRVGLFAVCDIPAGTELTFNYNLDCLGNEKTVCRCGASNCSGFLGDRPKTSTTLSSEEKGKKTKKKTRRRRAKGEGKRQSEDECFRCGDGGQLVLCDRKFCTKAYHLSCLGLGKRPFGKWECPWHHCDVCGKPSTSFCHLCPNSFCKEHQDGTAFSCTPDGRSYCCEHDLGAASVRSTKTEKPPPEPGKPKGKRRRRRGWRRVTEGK

[9] = HEK-293T cell viability reduction – luminescence, B-cell screen hits, cytotoxicity control for BCR NF-kB inhibitor project, dose response (AID 489021); type: functional, cell-based;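 note: HEK-293T cells carrying an NF-kB luciferase reporter; cells exposed to compound for about 14 hours before viability readout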
H9c2 = assay: cells; type: functional, cell-based; conditions: Rattus norvegicus, H9c2, Myocardium;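 note: confirmatory concentration-response retest of ultra-high-throughput screening hits for modulation of myocardial damage; cell death induced by hydrogen peroxide oxidative stress; compound pretreatment for 60 min then peroxide exposure for 2 h; potency is for protecting the cells against peroxide damage rather than for killing them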
[10] = reduced cellular PGC1a acetyl-lysine signal – cell-based, cherry-picked samples, dose response (AID 720514); type: functional;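 note: potency may reflect raised or lowered acetylation signal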
[11] = molecular target: T6, Tyrosyl-DNA phosphodiesterase 2 (Homo sapiens, UniProt O95551); assay: potency against TDP2 phosphodiesterase activity – biochemical, epi absorbance, IC50, dose response (AID 743297)
T6 sequence (O95551 whole entry): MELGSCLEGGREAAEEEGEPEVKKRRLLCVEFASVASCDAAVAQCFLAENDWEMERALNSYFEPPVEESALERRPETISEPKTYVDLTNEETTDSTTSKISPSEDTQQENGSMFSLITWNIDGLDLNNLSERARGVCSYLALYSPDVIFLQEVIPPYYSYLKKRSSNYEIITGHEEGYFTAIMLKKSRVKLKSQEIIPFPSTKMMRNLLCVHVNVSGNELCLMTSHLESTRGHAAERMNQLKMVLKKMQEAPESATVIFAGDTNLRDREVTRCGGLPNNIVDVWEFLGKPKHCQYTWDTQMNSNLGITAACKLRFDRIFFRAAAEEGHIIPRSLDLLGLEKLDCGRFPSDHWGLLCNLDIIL

Paired box protein Pax-8 = Paired box protein Pax-8 (Homo sapiens, UniProt Q06710); assay: PAX8 transcriptional activity inhibition in RMG-I – RMG-I cells, luciferase, cherry-pick, dose response (AID 687027); type: functional, cell-based;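 note: luciferase reporter driven by Pax8 target thyroperoxidase promoter measured by SteadyGlo luminescence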
[12] = OVCAR-3 cell viability loss – plate reader, dry powder samples, PAX8 inhibitor project, dose response (AID 743044); type: functional, cell-based
[13] = IGROV1 cell killing – plate reader, dry powder samples, PAX8 inhibitor project, dose response (AID 743043); type: functional, cell-based; conditions: IGROV-1
[14] = OVCAR8 cell viability loss – plate reader, dry powder samples, PAX8 project, dose response (AID 743197); type: functional, cell-based; conditions: OVCAR-8
[15] = Dd2 parasite growth inhibition in erythrocytes – SYBR Green, dry powder samples, set 9, dose response (AID 1159568); type: functional, cell-based
[16] = blockers of bursicon-stimulated LGR2 cAMP reporter – cell-based, HEK293, CRE-luciferase reporter, cherry pick, set 2, dose response (AID 743343); type: functional;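 note: transfected cells were stimulated with diluted bursicon conditioned medium after compound addition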
[17] = blockade of melanocortin 4 receptor signaling – cell-based, plate reader, cherry pick, counter-screen for LGR2 antagonist project, dose response (AID 743444); type: functional;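 note: transfected HEK 293 cells stimulated with alpha-MSH peptide; potency of inhibitors of the alpha-MSH evoked signal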
Cytochrome P450 3A4 = Cytochrome P450 3A4 (Homo sapiens, UniProt P08684); conditions: Potency;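 note: confirmatory qHTS run detecting inhibitors and substrates of CYP3A4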

Compound: Cc1nnc(NC(=O)CSc2nc(C(C)C)nc3ccccc23)s1
- IC50 [1]: > 69.5 µM (not active)
- IC50 [2]: > 66 µM (inactive)
- IC50 [3]: > 66 µM (inactive)
- IC50 (Major prion protein): 1.83 µM (active)
- IC50 (cells): > 138 µM (inactive)

Compound: Cc1cc(SC(C)C(=O)O)nc2ccccc12 (centres undefined)
- IC50 (Major prion protein): 8.85 µM (active)
- IC50 (cells): > 138 µM (inactive)

Compound: CCOc1cc(/C=C2\C(=O)NN(c3ccccc3)C2=O)cc([N+](=O)[O-])c1O
- EC50 [4]: > 160 µM (inactive)
- EC50 [5]: 129 µM (active)
- EC50 [6]: 36.2 µM (active)
- EC50 [7]: > 38 µM (not active)
- IC50 (Large T antigen): > 100 µM (active)
- AC50 (Caspase-6): 36.8 µM (active)
- AC50 [8]: > 20 µM (inactive)

Compound: COc1ccc(C(=O)Nc2cccc(NC(=O)c3ccc(OC)c(OC)c3)n2)cc1OC
- IC50 [9]: > 80 µM (inactive)
- IC50 (H9c2): > 79 µM (inactive)
- AC50 [10]: 7.99 µM (active)

Compound: CCOc1ccc2nc(NCCNC(=O)Nc3ccccc3)c(C#N)cc2c1
- AC50 [10]: 19.5 µM (active)

Compound: O=C(Nc1c(-c2ccc3c(c2)OCO3)[nH][nH]c1=O)c1ccccc1
- AC50 (Caspase-6): 47.5 µM (active)
- IC50 [11]: 9.43 µM (active)

Compound: COc1ccccc1NC(=O)N1CCCCN2[C@@H](CO)[C@@H](c3ccc(C#Cc4ccccc4)cc3)[C@@H]2C1
- AC50 (Paired box protein Pax-8): 4.9 µM (active)
- AC50 [12]: 19.3 µM (active)
- AC50 [13]: 39 µM (active)
- AC50 [14]: 35 µM (active)

Compound: C[C@H]1CCCCO[C@@H](CN(C)Cc2ccc(C(F)(F)F)cc2)[C@@H](C)CN([C@@H](C)CO)C(=O)c2cc(NS(=O)(=O)c3ccc(F)cc3)ccc2O1
- AC50 (Paired box protein Pax-8): 6.82 µM (active)
- AC50 [12]: 34.2 µM (active)
- AC50 [13]: 39.4 µM (active)
- AC50 [14]: 51.3 µM (active)

Compound: N#C[C@@H]1[C@H](c2ccccc2C2=CCCC2)[C@H](CO)N1C(=O)C1CCOCC1
- AC50 [15]: > 39 µM (inactive)

Compound: C[C@@H]1CCCCO[C@@H](CN(C)C(=O)Nc2cccc3ccccc23)[C@H](C)CN([C@@H](C)CO)C(=O)c2cc(NC(=O)CCC(F)(F)F)ccc2O1
- AC50 [15]: 6.54 µM (active)

Compound: C[C@@H]1CCCCO[C@H](CN(C)S(=O)(=O)c2ccc(F)cc2)[C@@H](C)CN([C@@H](C)CO)C(=O)c2cc(N(C)C)ccc2O1
- AC50 [15]: 2.17 µM (active)

Compound: COc1ccc(/C=C/C(=O)Nc2ccccc2C(=O)O)cc1OC
- AC50 [16]: 587 nM (active)
- AC50 [17]: 594 nM (active)
- AC50 (Cytochrome P450 3A4): 10 µM (inconclusive)

Reference: ChEMBL document CHEMBL1201862, “PubChem BioAssay data set” (2004)
